Test results from publication PMC7215373, “Design, Synthesis, and Anticancer Evaluation of Novel Indole Derivatives of Ursolic Acid as Potential Topoisomerase II Inhibitors” (International Journal of Molecular Sciences, 2020).

Assays:
[1] = test system: SMMC-7721 cells; test: AO/EB double staining assay; assay type: cell-based, human; conditions: 0.3, 0.6 and 1.2 μM, 48 h
Description: Apoptosis induced by compound 5f was further evaluated using acridine orange / ethidium bromide (AO/EB) double staining. AO, as a vital dye showing green fluorescence, can pass through cell membrane of living or dead cells, while EB only stains apoptotic or necrotic cells that have lost their integrity and appear red fluorescence. Therefore, the normal cells will be stained only by AO with bright green while apoptotic cells will be stained by AO and EB with red-orange [26, 27].
SMMC-7721 cells were seeded into six-well plates and incubated at 37 °C with 5% CO2 for 24 h. Then, the cells were exposed to different concentrations of compound 5f (0, 0.3, 0.6, and 1.2 μM) for 48 h. After that, 10 μL of each fluorescent dye cantaining AO and EB (10 μg/mL) were added to each well in equal volumes respectively and incubated for 5 min in the dark. The cells were visualized through an inverted fluorescence microscope (Olympus 1X71 Inverted System Microscope, Olympus, Tokyo, Japan).

[2] = molecular target: T1, Human Topoisomerase IIα (Homo sapiens, UniProt P11388); test: Topoisomerase II relaxation assay (supercoiled pBR322); assay type: biochemical
T1 construct: purchased USB, Affymetrix, Waltham, MA, USA
T1 sequence (P11388 whole entry): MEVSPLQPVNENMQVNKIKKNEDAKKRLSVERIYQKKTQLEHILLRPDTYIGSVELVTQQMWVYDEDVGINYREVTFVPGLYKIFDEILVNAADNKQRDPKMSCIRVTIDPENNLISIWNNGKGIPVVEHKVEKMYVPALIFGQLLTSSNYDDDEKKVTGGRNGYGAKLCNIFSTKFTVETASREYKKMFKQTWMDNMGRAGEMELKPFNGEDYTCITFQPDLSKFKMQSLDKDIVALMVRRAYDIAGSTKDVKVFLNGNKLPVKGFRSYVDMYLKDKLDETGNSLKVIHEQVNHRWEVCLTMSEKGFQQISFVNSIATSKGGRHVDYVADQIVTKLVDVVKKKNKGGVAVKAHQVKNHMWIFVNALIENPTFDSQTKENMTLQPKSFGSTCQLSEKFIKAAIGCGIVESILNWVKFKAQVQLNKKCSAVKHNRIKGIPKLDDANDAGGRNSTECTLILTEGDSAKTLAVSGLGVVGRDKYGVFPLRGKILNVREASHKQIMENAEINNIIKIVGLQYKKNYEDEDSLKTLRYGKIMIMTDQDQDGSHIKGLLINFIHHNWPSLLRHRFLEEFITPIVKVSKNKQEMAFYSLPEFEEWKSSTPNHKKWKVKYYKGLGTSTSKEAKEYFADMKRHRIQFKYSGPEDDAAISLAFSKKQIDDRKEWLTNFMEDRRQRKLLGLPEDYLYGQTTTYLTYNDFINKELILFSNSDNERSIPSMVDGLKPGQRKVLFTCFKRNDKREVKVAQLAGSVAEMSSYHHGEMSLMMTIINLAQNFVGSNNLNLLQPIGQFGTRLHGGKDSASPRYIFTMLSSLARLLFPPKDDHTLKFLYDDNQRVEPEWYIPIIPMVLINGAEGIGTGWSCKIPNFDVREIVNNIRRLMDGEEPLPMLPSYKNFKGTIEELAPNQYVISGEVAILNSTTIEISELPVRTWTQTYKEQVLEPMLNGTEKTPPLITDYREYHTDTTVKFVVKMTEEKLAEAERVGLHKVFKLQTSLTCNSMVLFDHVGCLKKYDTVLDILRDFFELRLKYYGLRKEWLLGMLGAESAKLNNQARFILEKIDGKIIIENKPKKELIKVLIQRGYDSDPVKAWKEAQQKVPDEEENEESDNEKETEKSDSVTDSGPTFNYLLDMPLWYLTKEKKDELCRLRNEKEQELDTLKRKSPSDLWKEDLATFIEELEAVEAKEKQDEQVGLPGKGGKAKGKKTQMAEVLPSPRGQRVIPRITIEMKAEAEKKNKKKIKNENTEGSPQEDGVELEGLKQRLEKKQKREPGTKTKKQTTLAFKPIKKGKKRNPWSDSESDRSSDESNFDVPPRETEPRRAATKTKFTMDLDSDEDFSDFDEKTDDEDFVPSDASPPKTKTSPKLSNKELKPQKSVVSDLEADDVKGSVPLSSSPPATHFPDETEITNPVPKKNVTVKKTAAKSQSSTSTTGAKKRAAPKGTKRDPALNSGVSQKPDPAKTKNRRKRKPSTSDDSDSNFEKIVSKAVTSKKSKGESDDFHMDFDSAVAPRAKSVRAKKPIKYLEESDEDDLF
Experimental: The effect of the tested compounds on Topo I and II activities were evaluated by Topo I/II relaxation assays. The reaction products, relaxed DNA could be distinguished from supercoiled DNA by gel electrophoresis and visualized using gel imaging system. Human Topoisomerase IIα activity was detected by measuring the relaxation of supercoiled pBR322 plasmid DNA [22]. […] For inhibition studies, the compounds were pre-incubated with human Topo IIα and DNA for 15 min. Compounds were used at the appropriate concentrations by dissolving in 2% (v/v) DMSO. DMSO didn't show detrimental effect on the enzyme activity at concentration up to 2% (v/v). Reaction mixture was incubated at 37 °C for 30 min and stopped by the addition of 7 mM EDTA. Reaction product was mixed with DNA loading dye and electrophoresed on 1% TAE-Agarose. The gel was stained with ethidium bromide (0.5 μg/mL) for 30 min, destained twice in 1× TAE buffer, and then visualized using a BIO-RAD Gel Doc XR+ System. Etoposide (VP-16) was co-assayed as a positive control.

[3] = test system: HepG2 cells; test: MTT cytotoxicity assay, HepG2; assay type: cell-based, human; conditions: 48 h exposure
Experimental: (§1) The in vitro cytotoxic activities of synthesized compounds were evaluated against two human hepatocarcinoma cell lines (SMMC-7721 and HepG2) and the human normal hepatocyte cell line (LO2) via MTT assay. All tested compounds were dissolved in DMSO and the stock solutions were diluted by DMEM medium before treatment of the cultured cells. […] Cell lines were obtained from American Tissue Culture Collection (ATCC). Briefly, different tumor cells were grown in DMEM medium supplemented with 10% fetal bovine serum, penicillin (100 U/mL), and streptomycin (50 μg/mL). Cells were harvested at log phase of growth and seeded in 96-well plates (100 μL/well at a density of 2 × 10^5 cells/mL). After 24 h incubation at 37 °C and 5% CO2 to allow cell attachment, cultures were exposed to various concentrations of the isolated compounds for 48 h. Finally, MTT solution (2.5 mg/mL in PBS) was added (40 μL/well). Plates were further incubated for 4 h at 37 °C, and the formazan crystals formed were dissolved by adding 150 μL/well of DMSO. Absorption at 570 nm was measured with an ELISA plate reader. […] Doxorubicin, camptothecin, and etoposide (VP-16) were co-assayed as positive controls.

[4] = test system: SMMC-7721 cells; test: Annexin V-FITC/PI staining apoptosis assay by flow cytometry; assay type: cell-based, human; conditions: 48 h, control 4.41%
Experimental: To further investigate the role of apoptosis in the antitumor activity of compound 5f, SMMC-7721 cells were treated with different concentrations of compound 5f (0, 0.3, 0.6, and 1.2 μM) for 48 h. Then the treated cells were stained with Annexin V-FITC/PI followed by flow cytometry analysis.
The extent of apoptosis was quantitatively measured using Annexin V-FITC/PI dual staining assay. SMMC-7721 cells were seeded into a six-well plate at 5 × 10^5 cells per well in 10% fetal calf serum (FBS)-DMEM into six-well plates and treated with different concentrations of the indicated compound 5f for 48 h. The cells were detached with 0.25% trypsin, washed with ice-cold PBS for twice and then resuspended in 1 × Binding buffer (0.1 M Hepes/NaOH (pH 7.4), 1.4 M NaCl, 25 mM CaCl2). The cells were stained with 5 μL of Annexin V-FITC and 5 μL of PI ([…]) to each tube. The cells were gently vortexed and incubated in the dark at room temperature for 15 min and then kept at 4 °C. The samples were analyzed by a flow cytometer (Becton-Dickinson FACSCalibur, Franklin Lakes, NJ, USA), and data were analyzed using the FlowJo software (Becton-Dickinson Biosciences, Franklin Lakes, NJ, USA).

[5] = test system: SMMC-7721 cells; test: MTT cytotoxicity assay, SMMC-7721; assay type: cell-based, human; conditions: 48 h exposure
Experimental: as §1

[6] = test system: SMMC-7721 cells; test: ROS generation assay (DCFH-DA, flow cytometry); assay type: cell-based, human; conditions: 48 h, control 3.97%
Experimental: Reactive oxygen species (ROS), which can exert oxidative stress to cells and lead to disturbances in mitochondrial membrane potential, are important mediators for the induction of apoptosis in many cancer cells. To determine whether the apoptosis induced by compound 5f was associated with intracellular ROS level, SMMC-7721 cells treated with different concentrations of 5f were stained with the fluorescent probe DCFH-DA and analyzed by flow cytometry.
ROS generation assay was performed by using the reactive oxygen species assay kit (Beyotime Biotech., Shanghai, China). Intracellular ROS generation was tested through dichlorodihydro fluorescein diacetate (DCFH-DA) assay. DCFH-DA is taken up by SMMC-7721 cells, and then activated by esterase-mediated cleavage of acetate to form dichlorodihydro fluorescein (DCFH), which is trapped in the cells. DCFH is converted to fluorescein DCF in the presence of ROS. SMMC-7721 cells were seeded in six-well plates and incubated with different concentrations of compound 5f for 48 h. After removing the compound solution, cells were treated with 10 μM of DCFH-DA at 37 °C for 20 min. Subsequently, the cells were washed with PBS for three times and then exposed to light. Immediately after light exposure, the fluorescence intensity of dichlorofluorescein (DCF) was measured with excitation at 488 nm and emission at 525 nm by a flow cytometry (Becton-Dickinson FACSCalibur, Franklin Lakes, NJ, USA).

inhibition at 20 µM ([2]; 20 μM compound, read-out: Topo II Inhibition (%) 20 μM): 43.2%
inhibition at 100 µM ([2]; 100 μM compound, read-out: Topo II Inhibition (%) 100 μM): 83.5%
Compound: Cc1ccc2[nH]c3c(c2c1)C[C@@]1(C)C(CC[C@]2(C)C1CC=C1C4[C@@H](C)[C@H](C)CC[C@]4(C(=O)NCCCN4CCN(C)CC4)CC[C@]12C)C3(C)C (stereo partly shown) [5f, N-(3-(4-Methylpiperazin-1-yl)propyl)-5′-methyl-1′H-ursa-2,12-dieno[3,2-b]indol-28-carboxamide]
apoptosis by AO/EB staining (fluorescence microscopy) [1]: induced apoptosis
IC50 [3]: 0.91 ± 0.13 µM
IC50 ([3]; Homo sapiens, HepG2, 48 h): ~1 µM
percentage of early and late apoptotic cells ([4]; 0.3 μM): 9.13%
percentage of early and late apoptotic cells ([4]; 0.6 μM): 21.36%
percentage of early and late apoptotic cells ([4]; 1.2 μM): 30.33%
IC50 [5]: 0.56 ± 0.08 µM
IC50 ([5]; Homo sapiens, SMMC-7721, 48 h): ~1 µM
cells with elevated ROS levels (% relative ROS raised cells) ([6]; 0.3 μM): 9.89%
cells with elevated ROS levels (% relative ROS raised cells) ([6]; 0.6 μM): 19.84%
cells with elevated ROS levels (% relative ROS raised cells) ([6]; 1.2 μM): 34.61%
